The record followed here is patent US10221139B2, “Inhibitors of histone demethylases” (Gilead Sciences, Inc., priority 2012, dated 2019).

In one experiment the target is T1, GASC1 (KDM4C, JMJD2C) (Homo sapiens, UniProt Q9H3R0).
T1 construct: 1-349; host or cells: E. coli
T1 sequence (Q9H3R0 1-349): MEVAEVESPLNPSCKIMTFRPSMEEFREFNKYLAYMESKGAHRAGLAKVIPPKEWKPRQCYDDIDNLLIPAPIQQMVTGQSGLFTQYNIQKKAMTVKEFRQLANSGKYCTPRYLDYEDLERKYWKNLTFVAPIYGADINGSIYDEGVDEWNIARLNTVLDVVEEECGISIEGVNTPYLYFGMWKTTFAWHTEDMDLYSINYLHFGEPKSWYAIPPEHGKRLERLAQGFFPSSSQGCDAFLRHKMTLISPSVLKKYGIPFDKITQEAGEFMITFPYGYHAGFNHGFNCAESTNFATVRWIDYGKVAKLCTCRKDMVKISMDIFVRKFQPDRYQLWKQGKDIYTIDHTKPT
As to the kind of experiment: Histone lysine demethylase AlphaLISA assay, GASC1. The format is biochemical. Conditions: substrate BK9M3. A digest of the protocol: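 Enzyme was preincubated 10 min, then 10 min with compounds in 3% DMSO buffer before substrate addition; reaction ran at room temperature. AlphaLISA acceptor beads (60 min, dark) and streptavidin donor beads were added before reading for IC50.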
(In general: In Alpha technology, singlet oxygen from a donor bead excites a nearby acceptor bead.)

Another experiment has as its target T2, FBXL10 (KDM2B) (Homo sapiens, UniProt Q8NHM5).
T2 construct: 1-650; purchased BPS, Bioscience, US; host or cells: Bac (baculovirus)
T2 sequence (Q8NHM5 1-650): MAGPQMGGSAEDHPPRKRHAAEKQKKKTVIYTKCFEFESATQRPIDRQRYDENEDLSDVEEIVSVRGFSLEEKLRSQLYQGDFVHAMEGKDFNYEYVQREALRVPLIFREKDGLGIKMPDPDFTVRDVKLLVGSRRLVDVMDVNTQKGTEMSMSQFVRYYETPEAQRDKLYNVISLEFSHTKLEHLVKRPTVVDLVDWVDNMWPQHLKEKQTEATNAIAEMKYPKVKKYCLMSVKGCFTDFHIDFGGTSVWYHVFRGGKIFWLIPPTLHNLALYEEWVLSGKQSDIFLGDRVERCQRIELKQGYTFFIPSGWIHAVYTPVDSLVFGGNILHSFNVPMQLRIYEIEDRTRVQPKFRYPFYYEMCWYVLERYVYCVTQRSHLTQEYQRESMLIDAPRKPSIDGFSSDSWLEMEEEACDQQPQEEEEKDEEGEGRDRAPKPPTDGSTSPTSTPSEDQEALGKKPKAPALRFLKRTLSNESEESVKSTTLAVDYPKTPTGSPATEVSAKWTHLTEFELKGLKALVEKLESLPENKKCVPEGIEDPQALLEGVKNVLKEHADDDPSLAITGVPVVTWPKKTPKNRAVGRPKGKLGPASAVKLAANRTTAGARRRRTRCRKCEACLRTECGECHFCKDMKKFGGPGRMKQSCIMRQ
Nature of the experiment: Histone lysine demethylase AlphaLISA assay, FBXL10. The class given is biochemical. Conditions: substrate BH3K36M2. On the procedure:
(§1) Example 2: Histone Lysine Demethylase AlphaLISA Assays for IC50 Value Determination
(§2) Assays are performed analogously to the protocol described by Perkin Elmer (Roy et al. Perkin Elmer Technical Note: AlphaLISA #12, April 2011).
(§3) Enzymes are dissolved in enzyme buffer and incubated for 10 min before 5 μL is added to 5 μL 3% DMSO solutions of compounds in enzyme buffer. Incubated for another 10 minutes, before 5 μL substrate solution is added and the reaction mixture is incubated at room temperature for the given period. 10 μL acceptor beads, suspended at given dilutions in Epigenetic Buffer (Perkin Elmer AL008) from stock, are added and the suspension is incubated 60 minutes in the dark at room temperature, before 10 μL suspension (at the given dilutions in Epigenetic Buffer) of streptavidin donor beads (Perkin Elmer 6760002) in Epigenetic Buffer is added. After incubation at room temperature in the dark the plates are read. Reaction conditions are seen in Table 2b.

A further experiment addresses T3, JARID1C (KDM5C) (Homo sapiens, UniProt P41229).
T3 construct: 2-1560; purchased BPS; host or cells: Bac (baculovirus)
As to the kind of experiment: Histone lysine demethylase AlphaLISA assay, JARID1C. The format is biochemical. As to conditions: substrate H3K4M3B. On the procedure:
as §1, §2, §3

For a further experiment, the target named is T4, JMJD1B (KDM3B) (Homo sapiens, UniProt Q7LBC6).
T4 construct: 842-1761; host or cells: Bac (baculovirus)
T4 sequence (Q7LBC6 842-1761): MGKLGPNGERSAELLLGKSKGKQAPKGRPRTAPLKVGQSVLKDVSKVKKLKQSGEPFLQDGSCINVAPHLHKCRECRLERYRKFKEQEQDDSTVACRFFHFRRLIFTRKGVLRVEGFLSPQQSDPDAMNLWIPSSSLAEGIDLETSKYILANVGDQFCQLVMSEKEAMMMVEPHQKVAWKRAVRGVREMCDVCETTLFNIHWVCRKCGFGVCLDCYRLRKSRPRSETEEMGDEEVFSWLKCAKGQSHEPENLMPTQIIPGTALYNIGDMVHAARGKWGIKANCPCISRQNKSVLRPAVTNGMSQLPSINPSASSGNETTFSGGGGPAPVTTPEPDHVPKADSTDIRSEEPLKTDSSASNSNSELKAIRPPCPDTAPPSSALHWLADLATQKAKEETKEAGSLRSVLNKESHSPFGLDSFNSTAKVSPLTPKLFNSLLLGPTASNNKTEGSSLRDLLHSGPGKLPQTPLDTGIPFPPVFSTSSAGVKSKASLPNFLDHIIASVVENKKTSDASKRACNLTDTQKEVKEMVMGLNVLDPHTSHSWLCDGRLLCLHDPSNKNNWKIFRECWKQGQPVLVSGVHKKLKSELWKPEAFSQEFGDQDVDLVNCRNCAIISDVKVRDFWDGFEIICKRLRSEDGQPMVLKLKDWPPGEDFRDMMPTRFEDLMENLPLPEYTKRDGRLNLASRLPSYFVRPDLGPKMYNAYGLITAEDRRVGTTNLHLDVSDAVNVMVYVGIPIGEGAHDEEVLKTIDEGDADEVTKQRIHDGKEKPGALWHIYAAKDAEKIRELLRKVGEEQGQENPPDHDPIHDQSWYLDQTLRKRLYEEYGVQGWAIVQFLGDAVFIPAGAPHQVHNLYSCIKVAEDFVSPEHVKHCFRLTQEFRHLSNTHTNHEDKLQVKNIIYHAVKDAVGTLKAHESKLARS
Nature of the experiment: Histone lysine demethylase AlphaLISA assay, JMJD1B. The class given is biochemical. Conditions: substrate BK9M2. The procedure: as §1, §2, §3

Experiment [1] concerns the target T5, JMJD2A (KDM4A) (Homo sapiens, UniProt O75164).
T5 construct: 1-350; purchased BPS, Bioscience, US; host or cells: E. coli
T5 sequence (O75164 1-350): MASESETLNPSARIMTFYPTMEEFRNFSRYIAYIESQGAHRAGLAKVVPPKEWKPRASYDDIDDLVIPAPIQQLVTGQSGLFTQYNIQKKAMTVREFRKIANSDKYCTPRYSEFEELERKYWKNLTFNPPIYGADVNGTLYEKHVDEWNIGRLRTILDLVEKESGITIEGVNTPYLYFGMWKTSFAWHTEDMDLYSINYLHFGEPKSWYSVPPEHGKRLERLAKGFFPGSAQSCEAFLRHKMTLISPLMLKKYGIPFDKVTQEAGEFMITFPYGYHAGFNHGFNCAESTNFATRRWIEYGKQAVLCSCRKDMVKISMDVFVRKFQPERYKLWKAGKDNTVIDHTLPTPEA
Nature of the experiment: Histone lysine demethylase AlphaLISA assay, JMJD2A. The format is biochemical. Conditions: substrate BK9M3. On the procedure: as §1, §2, §3

The target of the next experiment is T6, JMJD2B (KDM4B) (Homo sapiens, UniProt O94953).
T6 construct: 2-500; purchased BPS; host or cells: Bac (baculovirus)
T6 sequence (O94953 2-500): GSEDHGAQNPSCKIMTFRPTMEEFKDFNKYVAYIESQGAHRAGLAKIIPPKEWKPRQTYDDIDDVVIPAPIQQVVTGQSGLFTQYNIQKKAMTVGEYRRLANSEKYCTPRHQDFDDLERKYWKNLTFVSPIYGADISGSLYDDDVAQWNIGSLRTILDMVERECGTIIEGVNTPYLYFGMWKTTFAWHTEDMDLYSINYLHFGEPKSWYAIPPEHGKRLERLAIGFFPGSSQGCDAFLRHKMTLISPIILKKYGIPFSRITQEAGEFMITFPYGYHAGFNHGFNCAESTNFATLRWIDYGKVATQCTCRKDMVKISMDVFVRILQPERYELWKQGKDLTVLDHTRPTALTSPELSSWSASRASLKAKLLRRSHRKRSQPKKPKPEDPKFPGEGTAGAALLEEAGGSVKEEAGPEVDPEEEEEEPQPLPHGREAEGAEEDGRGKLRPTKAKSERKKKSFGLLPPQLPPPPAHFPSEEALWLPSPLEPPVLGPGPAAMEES
Nature of the experiment: Histone lysine demethylase AlphaLISA assay, JMJD2B. As to conditions: substrate BK9M3, read-out: JMUD2B IC50. The class given is biochemical. On the procedure: as §1, §2, §3

In a further experiment the target is T7, PHF8 (KDM7) (Homo sapiens, UniProt Q9UPP1).
T7 construct: KDM7 (PHF8); BRIC; 1-1322; Bac
Nature of the experiment: Histone lysine demethylase AlphaLISA assay, PHF8. The class given is biochemical. As to conditions: substrate BK9M2. On the procedure:
as §1, §2, §3

Experiment [2] addresses T8, JMJD2A (KDM4A) (Homo sapiens, UniProt O75164).
T8 construct: Full length; host or cells: U2OS
T8 sequence (O75164 1-1064): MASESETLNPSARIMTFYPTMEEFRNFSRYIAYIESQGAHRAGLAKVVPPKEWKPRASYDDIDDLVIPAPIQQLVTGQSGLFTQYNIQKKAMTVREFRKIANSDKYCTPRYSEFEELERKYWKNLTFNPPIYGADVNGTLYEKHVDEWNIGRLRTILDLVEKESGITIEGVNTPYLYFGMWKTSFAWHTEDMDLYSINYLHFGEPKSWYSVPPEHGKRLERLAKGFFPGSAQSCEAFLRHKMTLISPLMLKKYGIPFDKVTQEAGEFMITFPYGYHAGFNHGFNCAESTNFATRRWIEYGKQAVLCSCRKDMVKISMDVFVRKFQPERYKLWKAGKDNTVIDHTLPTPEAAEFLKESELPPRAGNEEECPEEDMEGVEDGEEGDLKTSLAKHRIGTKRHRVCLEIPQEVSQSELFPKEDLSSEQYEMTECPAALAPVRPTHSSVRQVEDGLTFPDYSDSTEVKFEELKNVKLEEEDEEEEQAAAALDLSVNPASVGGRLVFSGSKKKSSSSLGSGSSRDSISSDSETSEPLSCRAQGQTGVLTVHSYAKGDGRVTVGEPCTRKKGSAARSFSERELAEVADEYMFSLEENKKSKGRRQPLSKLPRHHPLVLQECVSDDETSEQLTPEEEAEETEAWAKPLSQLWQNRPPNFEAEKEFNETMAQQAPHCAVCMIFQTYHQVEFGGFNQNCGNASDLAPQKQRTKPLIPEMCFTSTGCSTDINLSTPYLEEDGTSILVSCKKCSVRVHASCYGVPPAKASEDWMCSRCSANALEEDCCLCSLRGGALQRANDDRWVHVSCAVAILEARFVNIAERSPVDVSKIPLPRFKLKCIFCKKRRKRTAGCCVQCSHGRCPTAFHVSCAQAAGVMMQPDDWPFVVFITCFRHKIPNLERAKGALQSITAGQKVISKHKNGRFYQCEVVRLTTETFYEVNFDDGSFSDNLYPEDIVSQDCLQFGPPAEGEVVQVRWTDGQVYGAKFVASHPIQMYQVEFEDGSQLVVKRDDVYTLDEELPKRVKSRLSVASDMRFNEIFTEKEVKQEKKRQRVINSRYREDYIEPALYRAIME
As to the kind of experiment: Immunofluorescence assay in U2OS cells transfected with pCMVHA JMJD2A (H3K9me3 mark). Conditions: 20 hours. The class given is cell-based. On the procedure: U2OS cells were seeded 24 hours before transfection. Transfection was performed with Fugene HD transfection reagent as recommended by the manufacturer. 6 hours after transfection, the cells were harvested and seeded into multi well plates into media containing compound. The media used was DMEM containing 5% FBS and pen/strep. 20 hours after incubation of cells with compounds, the cells were washed once in PBS, harvested by fixation with formaldehyde 4% aqueous solution, and washed 2 times in PBS. Subsequently, the cells were permeabilized in PBS with 0.2% Triton X-100 for 10 min at room temperature. Blocking was performed in PBS with 0.2% Triton X-100 and 5% FBS for 45 min at room temperature. The cells were incubated with primary antibodies diluted 1 μg/ml in blocking solution over night at 4° C. The primary antibodies used in the assays were HA.11 (Covance, MMS-101P) and the antibody detecting the mark specified in the Table 6 below. After incubation with primary antibodies, the cells were washed 3 times with PBS, incubated with secondary antibodies diluted 1:1000 (Alexa fluor 594 goat anti rabbit IgG, Invitrogen, A11012; Alexa flour 488 donkey anti mouse IgG, Invitrogen, A21202) and Hoechst, 20 μg/ml (Sigma, 33342) in blocking solution, and washed again 3 times with PBS. Finally, PBS was added and high throughput imaging and analysis were performed by an IN Cell Analyzer 1000 (GE Healthcare). The robot software analyzed individual cells and divided these into HA^+ (transfected cells) and HA^− (non-transfected cells). The IC50 values in Table 7 below were based on an average measure of the staining of the mark specified in the Table 6 below in the transfected cells.

Each structure is given as a SMILES string. pIC50: −log10 of the molar value. Some results are limits rather than exact numbers.

T3 sequence (P41229 2-1560): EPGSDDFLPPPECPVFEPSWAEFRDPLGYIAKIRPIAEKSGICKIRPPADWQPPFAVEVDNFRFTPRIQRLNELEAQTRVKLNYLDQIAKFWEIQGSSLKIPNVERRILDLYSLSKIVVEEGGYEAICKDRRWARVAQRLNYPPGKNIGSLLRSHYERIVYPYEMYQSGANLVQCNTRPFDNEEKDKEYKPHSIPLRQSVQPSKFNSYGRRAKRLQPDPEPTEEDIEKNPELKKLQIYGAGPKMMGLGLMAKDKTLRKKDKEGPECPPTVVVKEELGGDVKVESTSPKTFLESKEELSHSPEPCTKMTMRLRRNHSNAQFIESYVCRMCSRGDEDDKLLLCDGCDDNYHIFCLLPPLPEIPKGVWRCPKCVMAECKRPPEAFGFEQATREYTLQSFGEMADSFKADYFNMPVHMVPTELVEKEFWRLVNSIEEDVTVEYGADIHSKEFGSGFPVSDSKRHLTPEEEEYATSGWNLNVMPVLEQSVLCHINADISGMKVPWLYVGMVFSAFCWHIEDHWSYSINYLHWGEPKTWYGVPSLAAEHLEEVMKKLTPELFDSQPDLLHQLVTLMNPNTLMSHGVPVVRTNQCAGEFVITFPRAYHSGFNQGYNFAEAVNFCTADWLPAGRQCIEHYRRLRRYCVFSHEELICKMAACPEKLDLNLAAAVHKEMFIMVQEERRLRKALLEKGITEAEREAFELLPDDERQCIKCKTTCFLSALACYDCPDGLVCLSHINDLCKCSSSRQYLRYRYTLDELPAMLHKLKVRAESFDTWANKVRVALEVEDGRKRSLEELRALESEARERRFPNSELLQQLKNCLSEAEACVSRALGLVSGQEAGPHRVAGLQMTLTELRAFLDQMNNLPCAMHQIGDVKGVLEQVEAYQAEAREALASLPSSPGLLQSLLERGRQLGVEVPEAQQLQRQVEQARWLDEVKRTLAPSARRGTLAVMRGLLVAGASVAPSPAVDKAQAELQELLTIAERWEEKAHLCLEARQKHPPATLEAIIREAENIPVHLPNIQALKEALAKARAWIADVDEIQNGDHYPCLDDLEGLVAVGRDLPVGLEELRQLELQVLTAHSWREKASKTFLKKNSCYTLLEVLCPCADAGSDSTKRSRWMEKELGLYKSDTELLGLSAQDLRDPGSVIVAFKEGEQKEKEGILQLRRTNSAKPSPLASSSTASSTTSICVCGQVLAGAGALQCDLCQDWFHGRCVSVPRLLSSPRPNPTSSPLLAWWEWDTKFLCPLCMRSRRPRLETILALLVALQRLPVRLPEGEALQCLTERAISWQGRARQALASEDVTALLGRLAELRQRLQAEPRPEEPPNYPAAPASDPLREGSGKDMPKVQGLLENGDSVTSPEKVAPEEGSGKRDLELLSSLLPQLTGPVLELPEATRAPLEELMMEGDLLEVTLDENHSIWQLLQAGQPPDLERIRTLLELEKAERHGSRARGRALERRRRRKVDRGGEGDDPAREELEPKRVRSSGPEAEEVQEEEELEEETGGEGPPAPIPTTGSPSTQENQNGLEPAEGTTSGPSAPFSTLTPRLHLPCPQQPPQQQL
T7 sequence (Q9UPP1 37-477 limits assumed): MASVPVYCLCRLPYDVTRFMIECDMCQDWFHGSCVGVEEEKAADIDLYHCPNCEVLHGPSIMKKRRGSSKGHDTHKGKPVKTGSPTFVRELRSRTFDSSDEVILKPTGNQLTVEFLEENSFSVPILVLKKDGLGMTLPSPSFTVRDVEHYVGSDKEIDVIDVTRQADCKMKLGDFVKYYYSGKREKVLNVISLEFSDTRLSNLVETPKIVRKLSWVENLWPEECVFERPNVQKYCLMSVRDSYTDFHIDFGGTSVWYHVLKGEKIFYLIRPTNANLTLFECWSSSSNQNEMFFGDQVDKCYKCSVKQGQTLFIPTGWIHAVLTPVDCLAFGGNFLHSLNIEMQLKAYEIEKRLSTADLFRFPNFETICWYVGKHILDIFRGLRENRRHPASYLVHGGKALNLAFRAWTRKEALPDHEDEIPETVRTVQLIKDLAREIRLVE

Usually pIC50 stands for −log10 of the IC50, conventionally taken in molar units. Consider `CN(CCCCN(Cc1ccccc1)C1CC1)C(=O)CNCc1cc(C(=O)O)ccn1` [#44, 2-({[({4-[benzyl(cyclopropyl)amino]butyl}(methyl)carbamoyl)methyl]amino}methyl)pyridine-4-carboxylic acid], for which the pIC50 against GASC1 (KDM4C, JMJD2C) is more than 7.00; against FBXL10 (KDM2B) it was more than 7.00; against JARID1C (KDM5C) it was more than 7.00; against JMJD1B (KDM3B), not above 6.00; at JMJD2A (KDM4A) [1] it was more than 7.00; on JMJD2B (KDM4B), more than 7.00. This molecule showed a pIC50 on PHF8 (KDM7) of 6.00 to 7.00.

`CSCCNCc1cc(C(=O)O)ccn1` [drawing 304, 2-({[2-(methylsulfanyl)ethyl]amino}methyl)pyridine-4-carboxylic acid] gave a pIC50 at JMJD2A (KDM4A) [2] of 4.30 to 6.00.
